Key:
Piezo1 = target: T1, Piezo1 (Mus musculus, UniProt E2JF22); assay: Calcium imaging of Yoda1 (Piezo1)-mediated [Ca2+]i in pancreatic acini; assay type: cell-based; conditions: pancreatic acini, bath calcium 2 mM, Yoda1 25 μM
T1 construct: endogenous in cells; host or cells: freshly isolated mouse pancreatic acini (WT = Piezo1 fl/fl on a C57BL/6J background)
Experimental: Mouse pancreatic acini were isolated using a standard collagenase digestion protocol. Isolated acini were plated on a thin-layered, Matrigel-coated, glass-bottom, culture plate (MatTek, P35G-0-14-C). Freshly isolated acini were used in each experiment.
Calcium imaging in pancreatic acini was performed as previously described. The chemicals used in calcium imaging experiments included the following: Yoda1 (Tocris; 5586), GsMTx4 (Abcam; ab141871), 5′,6′-EET (Santa Cruz Biotechnology; sc-221066), AA (Millipore Sigma; A3611), HC067047 (Tocris; 4100), GSK1016790A (Millipore Sigma; G0798), RN1734 (Tocris; 3746), AACOCF3 (Tocris; 1462), YM26734 (Tocris; 2522), GF109203X (Tocris; 0741), and CCK8 (Sigma-Aldrich).

pancreatic acini = assay: Trypsinogen activation in pancreatic acini (BZiPAR); assay type: cell-based, mouse
Experimental: To visualize Piezo1-induced trypsinogen activation, acini were loaded with active trypsin enzyme substrate BZiPAR (10 μM). Na-HEPES buffer with 2 mM Ca^2+ was used during imaging. A Zeiss Axio observer Z1 with a high-sensitivity EMCCD camera with a ×40/0.75 EC-Plan-NeoFluar DIC objective was used to capture the Z-stack images with stack thickness of 3 μm at an interval of 12 seconds. The BZiPAR fluorescent wavelength Ex/Em was 498/521 nm. BZiPAR was excited at 470-510 nm and emission collected at 495-550 nm. The captured images were analyzed with MetaMorph software (Molecular Devices).

TRPV4 = target: T2, TRPV4 (Mus musculus, UniProt Q9EPK8); assay: Calcium imaging of TRPV4-mediated [Ca2+]i in mouse PSCs; assay type: cell-based; conditions: Yoda1 25 μM
T2 construct: endogenous in cells; host or cells: freshly isolated mouse pancreatic acini (C57BL/6J WT)
T2 sequence (Q9EPK8 whole entry): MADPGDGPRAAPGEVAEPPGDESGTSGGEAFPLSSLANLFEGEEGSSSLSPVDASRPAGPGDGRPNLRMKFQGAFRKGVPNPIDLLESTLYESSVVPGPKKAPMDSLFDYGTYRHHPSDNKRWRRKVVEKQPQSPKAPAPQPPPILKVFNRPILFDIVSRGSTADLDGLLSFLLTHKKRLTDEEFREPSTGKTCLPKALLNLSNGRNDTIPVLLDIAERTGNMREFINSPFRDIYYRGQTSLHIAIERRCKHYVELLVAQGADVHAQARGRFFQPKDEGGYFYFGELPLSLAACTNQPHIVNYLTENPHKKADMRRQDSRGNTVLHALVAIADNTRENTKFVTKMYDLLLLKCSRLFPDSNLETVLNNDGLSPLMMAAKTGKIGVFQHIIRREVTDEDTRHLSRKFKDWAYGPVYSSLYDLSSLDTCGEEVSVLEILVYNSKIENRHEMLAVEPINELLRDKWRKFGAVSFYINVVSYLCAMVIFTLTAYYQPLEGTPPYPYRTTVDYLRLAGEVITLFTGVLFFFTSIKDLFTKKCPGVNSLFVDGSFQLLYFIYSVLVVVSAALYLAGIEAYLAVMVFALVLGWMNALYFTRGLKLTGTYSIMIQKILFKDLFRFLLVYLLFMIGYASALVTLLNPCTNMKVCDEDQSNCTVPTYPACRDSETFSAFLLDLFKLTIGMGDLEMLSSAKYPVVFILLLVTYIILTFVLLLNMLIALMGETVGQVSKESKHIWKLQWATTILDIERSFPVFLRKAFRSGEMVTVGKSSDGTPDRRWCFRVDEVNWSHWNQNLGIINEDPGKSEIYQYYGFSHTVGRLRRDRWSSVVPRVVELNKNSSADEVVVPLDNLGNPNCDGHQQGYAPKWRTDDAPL
Experimental: (§1) Mouse and human PSCs were isolated using collagenase digestion. Modified Krebs Henseleit Buffer (KHB) solution (100 mL) was prepared as previously described by Romac et al., Nat. Commun. 9(1):1715 (2018). Pancreatic tissue was digested with 2 mg of collagenase NB 8 (SERVA, catalog 17456) dissolved in 10 mL of modified KHB solution containing 1 mg soybean trypsin inhibitor (SBTI 1-S; Millipore Sigma, catalog T9003) and 20 mg BSA (Thermo Fisher Scientific; BP1600-100). Digestion solution (5 mL) was used to inflate the pancreas. Pancreas with 5 mL of digestion solution was incubated in a shaking water bath for 10 minutes at 37° C. The solution was then discarded. The pancreas tissue was cut into small pieces and digested with fresh 5 mL digestion buffer. Tissue was incubated in a shaking water bath for 40 minutes at 37° C. The cells were then separated from tissue by pipetting up-down with a 10 mL pipette and passed sequentially through a 70 μm and a 40 μm cell strainer. The filtrate was centrifuged at 150×g for 3 minutes at room temperature. The cells were washed with 10 mL Leibovitz's media (Thermo Fisher Scientific, catalog 11415-064), passed through a 20 μm filter, and centrifuged at 80×g for 3 minutes at room temperature. The supernate was removed, and isolated stellate cells were plated on a thin-layered Matrigel-coated glass bottom culture plate (MatTek, P35G-0-14-C). Before plating the cells, Matrigel solution (Corning, catalog 354234) at a ratio of 1.5:100 DMEM/F12 (Thermo Fisher Scientific, catalog 11330-032) was poured onto the culture plate and incubated for 2 hr at 37° C. to form a thin layer of Matrigel coating. Matrigel mixture was removed, and the plate was washed with PBS before cells were plated. Cell culture media, DMEM/F12 with 5% FBS was used for mouse stellate cells. Fresh, human pancreatic tissue was digested with collagenase as described above with modifications. […] The cell viability following Yoda1 treatment was analyzed using the Live/Dead cell imaging kit (Thermo Fisher Scientific, catalog R37601). […]

PSCs = assay: PSC viability (Live/Dead Cell Imaging Kit); assay type: cell-based; conditions: Yoda1 25 μM for 2 hr
Experimental: as §1, with “temperature.” for “temperature. The supernate was removed, and isolated stellate cells were plated on a thin-layered Matrigel-coated glass bottom culture plate (MatTek, P35G-0-14-C). Before plating the cells, Matrigel solution (Corning, catalog 354234) at a ratio of 1.5:100 DMEM/F12 (Thermo Fisher Scientific, catalog 11330-032) was poured onto the culture plate and incubated for 2 hr at 37° C. to form a thin layer of Matrigel coating. Matrigel mixture was removed, and the plate was washed with PBS before cells were plated. Cell culture media, DMEM/F12 with 5% FBS was used for mouse stellate cells. Fresh, human pancreatic tissue was digested with collagenase as described above with modifications.”

T1 sequence (E2JF22 whole entry): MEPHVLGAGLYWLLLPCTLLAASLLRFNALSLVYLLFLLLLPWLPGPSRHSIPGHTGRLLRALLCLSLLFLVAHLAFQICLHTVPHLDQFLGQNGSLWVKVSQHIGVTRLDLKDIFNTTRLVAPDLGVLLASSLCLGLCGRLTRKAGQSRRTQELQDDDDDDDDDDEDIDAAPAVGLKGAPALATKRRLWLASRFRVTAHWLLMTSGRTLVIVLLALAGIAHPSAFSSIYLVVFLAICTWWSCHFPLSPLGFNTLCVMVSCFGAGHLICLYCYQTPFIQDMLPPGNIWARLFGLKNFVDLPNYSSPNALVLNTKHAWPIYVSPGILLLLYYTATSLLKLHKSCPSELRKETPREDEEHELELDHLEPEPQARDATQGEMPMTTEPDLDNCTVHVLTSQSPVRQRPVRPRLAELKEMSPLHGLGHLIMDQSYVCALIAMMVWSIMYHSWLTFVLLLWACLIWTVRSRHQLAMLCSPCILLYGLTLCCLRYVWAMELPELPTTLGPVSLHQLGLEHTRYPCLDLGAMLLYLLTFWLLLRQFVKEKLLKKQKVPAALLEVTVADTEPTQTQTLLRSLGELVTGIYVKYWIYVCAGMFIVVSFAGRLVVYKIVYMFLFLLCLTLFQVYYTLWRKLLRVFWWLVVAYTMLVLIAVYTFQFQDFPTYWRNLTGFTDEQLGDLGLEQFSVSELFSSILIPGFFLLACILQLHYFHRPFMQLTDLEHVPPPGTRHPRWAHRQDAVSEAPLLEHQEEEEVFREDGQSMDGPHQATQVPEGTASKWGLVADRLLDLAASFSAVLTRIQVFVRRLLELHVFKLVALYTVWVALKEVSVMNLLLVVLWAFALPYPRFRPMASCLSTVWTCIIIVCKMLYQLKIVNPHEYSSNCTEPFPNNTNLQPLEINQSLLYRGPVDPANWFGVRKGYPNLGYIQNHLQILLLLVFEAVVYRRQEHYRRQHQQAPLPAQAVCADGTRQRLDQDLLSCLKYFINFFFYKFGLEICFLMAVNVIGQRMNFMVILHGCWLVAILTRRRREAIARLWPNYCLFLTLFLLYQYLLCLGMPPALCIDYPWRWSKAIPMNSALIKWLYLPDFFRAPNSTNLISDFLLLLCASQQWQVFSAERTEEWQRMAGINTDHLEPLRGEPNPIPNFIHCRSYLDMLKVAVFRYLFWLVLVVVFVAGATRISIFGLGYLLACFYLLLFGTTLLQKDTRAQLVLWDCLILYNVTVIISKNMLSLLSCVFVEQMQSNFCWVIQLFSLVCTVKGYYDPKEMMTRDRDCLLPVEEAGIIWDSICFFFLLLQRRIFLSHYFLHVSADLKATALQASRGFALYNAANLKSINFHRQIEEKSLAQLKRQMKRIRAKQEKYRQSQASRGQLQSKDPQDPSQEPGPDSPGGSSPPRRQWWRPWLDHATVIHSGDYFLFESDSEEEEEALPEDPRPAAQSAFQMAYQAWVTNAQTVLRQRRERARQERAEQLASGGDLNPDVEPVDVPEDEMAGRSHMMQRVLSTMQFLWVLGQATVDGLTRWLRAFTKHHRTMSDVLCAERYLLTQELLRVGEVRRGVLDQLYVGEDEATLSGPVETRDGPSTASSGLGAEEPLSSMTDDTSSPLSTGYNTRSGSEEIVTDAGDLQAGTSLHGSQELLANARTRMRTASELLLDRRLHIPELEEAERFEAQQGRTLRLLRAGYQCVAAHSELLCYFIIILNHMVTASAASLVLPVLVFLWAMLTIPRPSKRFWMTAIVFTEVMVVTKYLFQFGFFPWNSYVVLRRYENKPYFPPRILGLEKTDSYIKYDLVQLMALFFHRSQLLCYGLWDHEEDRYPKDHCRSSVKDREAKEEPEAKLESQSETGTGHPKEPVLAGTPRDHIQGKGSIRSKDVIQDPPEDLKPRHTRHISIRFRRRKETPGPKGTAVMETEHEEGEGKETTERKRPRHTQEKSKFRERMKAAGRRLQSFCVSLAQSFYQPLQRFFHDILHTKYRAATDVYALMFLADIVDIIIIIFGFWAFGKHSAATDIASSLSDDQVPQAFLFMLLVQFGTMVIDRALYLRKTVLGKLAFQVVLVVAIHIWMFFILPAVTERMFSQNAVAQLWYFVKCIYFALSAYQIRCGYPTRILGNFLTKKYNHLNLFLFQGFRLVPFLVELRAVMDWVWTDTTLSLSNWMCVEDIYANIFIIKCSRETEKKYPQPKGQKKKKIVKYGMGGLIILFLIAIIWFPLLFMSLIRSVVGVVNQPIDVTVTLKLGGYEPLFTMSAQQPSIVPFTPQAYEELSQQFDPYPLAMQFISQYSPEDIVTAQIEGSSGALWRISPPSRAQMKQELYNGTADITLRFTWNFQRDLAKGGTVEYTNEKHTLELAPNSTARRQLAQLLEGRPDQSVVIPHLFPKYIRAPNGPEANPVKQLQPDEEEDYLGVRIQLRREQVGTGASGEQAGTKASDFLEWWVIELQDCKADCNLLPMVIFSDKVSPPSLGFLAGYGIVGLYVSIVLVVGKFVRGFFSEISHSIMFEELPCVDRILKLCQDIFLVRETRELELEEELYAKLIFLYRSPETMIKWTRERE

**Q.** Which results are given for `Clc1cccc(Cl)c1CSc1nnc(-c2cnccn2)s1` [Yoda1]?
**A.** [Ca2+]i response to Yoda1 (Piezo1): initial transient Ca^2+ rise, followed by sustained intracellular calcium elevation; trypsin activation in acinar cells from Piezo1aci-KO mice (pancreatic acini; Yoda1): did not respond to Yoda1; trypsin activation (BZiPAR fluorescence) (pancreatic acini; Yoda1 50 μM or CCK 10 nM): activated trypsin in pancreatic acini over time; time to trypsin activation after application (pancreatic acini; Yoda1 50 μM, CCK 10 nM): ≤ 10 min; [Ca2+]i response in TRPV4-null PSCs (TRPV4): caused only transient calcium elevations in TRPV4-null PSCs; PSC viability and membrane integrity (PSCs): did not affect PSC viability and membrane integrity
